From patent publication EP3772943B1, “FORMULATION OF INSECTICIDAL MIXTURES WITH PROPYLENE CARBONATE” (Bayer Aktiengesellschaft, priority 2018, dated 2019)

Tested on: enzymatisch isolierte Kutikeln von Apfelbaumblättern
Experiment: Cuticle penetration test in diffusion cells with HPLC read-out (Beispiel V)
Format: in vitro ADME, Apfelbäumen
Settings: active substances without additives and in presence of propylene carbonate (Tabelle V, Eintrag 1,2)
Text: In diesem Test wird die Penetration von Wirkstoffen durch enzymatisch isolierte Kutikeln von Apfelbaumblättern gemessen.
Verwendet werden Blätter, die in voll entwickeltem Zustand von Apfelbäumen abgeschnitten werden und nach der Methode beschrieben bei Schönherr und Riederer isoliert (Schönherr, J., Riederer, M. (1986)). Es werden nur die von Spaltöffnungen und Haaren freien Kutikeln der Blattoberseiten weiter verwendet. Die so gewonnenen Kutikularmembranen werden für Membran-Transport-Untersuchungen in Diffusionszellen (=Transportkammern) aus Edelstahl eingelegt. Dazu werden die Kutikeln mit einer Pinzette mittig auf die mit Silikonfett bestrichenen Ränder der Diffusionszellen plaziert und mit einem ebenfalls gefetteten Ring verschlossen. Die Anordnung ist so gewählt, dass die morphologische Außenseite der Kutikeln nach außen, also zur Luft, gerichtet ist, während die ursprüngliche Innenseite dem Inneren der Diffusionszelle zugewandt ist. Die Diffusionszellen sind mit Wasser bzw. mit einem Gemisch aus Wasser und Lösungsmittel gefüllt und auf des physiologisch relevante pH von 5.5 gepuffert. Das Medium der Diffusionszellen soll das Apoplast, also das natürliche Aufnahmemdium im inneren des Blattes nachstellen. […]

O=C1C=C(N(Cc2ccc(Cl)nc2)CC(F)F)CO1 [Flupyradifurone]
Kutikelpenetration: keine oder kaum Kutikelpenetration
